Reference: patent publication US20080125432A1 (Devgen NV, priority 2004, published 2008)
pIC50: −log10 of the molar value. Like-named read-outs stand apart in the source and are kept apart here.

Target: T1, hERG potassium channel (Homo sapiens, UniProt Q12809)
T1 construct: host or cells: HEK 293 T-REx
Assay: Whole cell patch clamp, HEK 293 T-REx HERG cells
Assay type: cell-based
Source text: For this experiment HEK 293 T-REx HERG cells (#23) were used. This cell line made by IonGate is characterized by the inducible expression of the hERG gene. The T-REx™ System (Invitrogen, Karlsruhe, Germany) is a tetracycline-regulated mammalian expression system that uses regulatory elements from the E. coli Tn10-encoded tetracycline (Tet) resistance operon. In the absence of Tet the expression is repressed. Tetracycline regulation in the T-REx™ System is based on the binding of tetracycline to the Tet repressor and derepression of the promoter controlling expression of the hERG gene. Addition of Tet to the cell culture media results in expression of the hERG potassium channel.
To construct the HEK 293 T-REx HERG cell line, the hERG gene was ligated into the inducible expression vector pcDNA4/TO (→pc4TO-HERG) and transfected into HEK 293 T-REx cells (this cell line stably expresses the Tet repressor and was purchased at Invitrogen). Stable cell clones were isolated after selection with Blasticidin (5 μg/ml) and Zeocin™ (300 μg/ml). The clones were electrophysiological characterized after induction with 1 μg/ml Tet.
Experiments were performed using the patch clamp set-up. Technical equipment needed for manipulation of the cells was placed on a vibration-isolated table and shielded with a Faraday cage to minimize electrical noise. The amplifier and control system were placed in a rack outside the Faraday cage. The system consisted of an EPC9 or EPC10 patch clamp amplifier (HEKA, Lambrecht, Germany), and the perfusion system DADVC8 (ALA Scientific, New York, USA) controlled by the Pulse software package (HEKA, Lambrecht, Germany) installed on a personal computer.
The cells used for this experiment were kept in continuous culture under standard conditions (37° C., air supplemented with 5% CO2). The HEK 293 T-REx HERG cells were kept in minimal essential medium (MEM) supplemented with 100 U/ml Penicillin, 100 μg/ml Streptomycin, 10% fetal calf serum (FCS), 1% non-essential amino acids (NEAA), 2.5 μg/ml amphotericin, 300 μg/ml Zeocin™ and 5 μg/ml Blasticidin. Cells were passed every 3-4 days after detachment using a Trypsin solution. The quality of the cultured cells was guaranteed by vitality and contamination tests. The culture of the cells was performed as described in protocol D described above.
At least 18 hours prior to electrophysiological experiments the cells were detached by application of iced PBS (phosphate buffered saline) or Trypsin and replated on cover slips. 1 μg/ml Tet was added to the cells to induce hERG expression.
Activity of the cardiac hERG channel was investigated using the patch clamp technique in its whole cell mode. This means that the current needed for clamping the whole cell expressing the K^+-channel protein to a specific potential was measured. The pipettes used for patch clamping were made of borosilicate glass. Measurements were performed at room temperature (20-25° C.). In each experiment (i.e. each cell) only one concentration of the compound was investigated no cumulative dosages were performed. Each cell acted as its own control. […]
After the whole cell configuration was established a series of pulses was applied to check for hERG expression and to optimize amplifier settings. However, only the following measurements were used for data analysis: 15 test pulses (FIG. 4a and Table 6a) were applied at 0.1 Hz (series 1) under constant superfusion with bath solution. The protocol was initiated by a leak test at −40 mV (50 ms). […] The maximum hERG tail current amplitude was measured at −40 mV (tail current test, 1.5 sec.). Only cells generating tail current amplitudes between 300 pA and 10 nA were used for the experimental procedure.
After successful characterization of the current another 10 test pulses were applied at 0.1 Hz while the cell was superfused with bath solution (series 2). […]

T1 sequence (Q12809 whole entry): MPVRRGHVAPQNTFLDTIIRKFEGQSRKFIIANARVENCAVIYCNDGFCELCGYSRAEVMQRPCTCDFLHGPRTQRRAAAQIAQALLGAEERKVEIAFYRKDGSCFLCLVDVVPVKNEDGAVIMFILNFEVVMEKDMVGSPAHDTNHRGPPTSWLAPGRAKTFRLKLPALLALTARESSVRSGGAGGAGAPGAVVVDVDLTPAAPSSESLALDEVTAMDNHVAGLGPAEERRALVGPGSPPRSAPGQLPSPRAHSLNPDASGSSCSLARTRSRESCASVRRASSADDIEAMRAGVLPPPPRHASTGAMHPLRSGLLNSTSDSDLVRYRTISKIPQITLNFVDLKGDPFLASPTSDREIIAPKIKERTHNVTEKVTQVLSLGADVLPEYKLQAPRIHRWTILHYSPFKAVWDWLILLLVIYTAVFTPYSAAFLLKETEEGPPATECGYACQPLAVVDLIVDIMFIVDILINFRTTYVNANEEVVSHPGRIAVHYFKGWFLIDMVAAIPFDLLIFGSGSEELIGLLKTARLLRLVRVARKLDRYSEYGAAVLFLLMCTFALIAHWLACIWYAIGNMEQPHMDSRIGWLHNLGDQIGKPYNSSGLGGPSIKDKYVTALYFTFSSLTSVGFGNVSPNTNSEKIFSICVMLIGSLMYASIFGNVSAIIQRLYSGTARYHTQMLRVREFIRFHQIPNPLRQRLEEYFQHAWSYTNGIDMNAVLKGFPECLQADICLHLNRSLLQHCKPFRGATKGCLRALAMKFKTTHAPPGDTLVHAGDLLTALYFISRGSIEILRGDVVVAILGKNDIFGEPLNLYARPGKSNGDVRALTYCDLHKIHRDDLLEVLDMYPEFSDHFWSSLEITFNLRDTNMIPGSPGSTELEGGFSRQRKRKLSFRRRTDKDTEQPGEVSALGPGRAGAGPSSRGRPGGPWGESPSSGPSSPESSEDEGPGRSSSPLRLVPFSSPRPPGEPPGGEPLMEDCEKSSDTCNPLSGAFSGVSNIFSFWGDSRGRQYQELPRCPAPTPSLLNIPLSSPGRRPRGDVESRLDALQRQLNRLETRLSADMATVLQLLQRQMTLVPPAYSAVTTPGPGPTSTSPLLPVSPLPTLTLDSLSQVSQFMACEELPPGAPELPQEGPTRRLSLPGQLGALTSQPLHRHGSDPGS

Q: For `Cc1nc(Nc2ccc(Br)cc2)sc1C(=O)NCc1ccc(N(C)C)cc1` [Compound 64, 2-(4-bromo-phenylamino)-4-methyl-thiazole-5-carboxylic acid 4-dimethylamino-benzylamide], which IC50 (estimated by Hill fit with hill=1, ymax=100, tested at 10 μM, n=2, read-out: IC50 (μM) hERG) is on record?
A: > 100 µM

Q: What about the pIC50 (patch clamp, read-out: hERG IC50) of the same compound?
A: < 4.00
